{
  "source": "patent US9138479B2",
  "about": "“Formulations for the treatment of diabetes” (XERIS PHARMACEUTICALS, INC., priority 2011, dated 2015)",
  "experiment": "Pramlintide solubility in DMSO and DMSO-water co-solvents (visual inspection)",
  "type": "physicochemical",
  "settings": "pH memory 2.0; 20 mg/mL in neat DMSO",
  "experimental": "• 3b. […] The resulting solutions are assessed visually for clarity and/or analyzed for light scattering using visible spectroscopy at […], and used in various downstream applications.\nSolutions of pramlintide were prepared at a concentration of 2 mg/mL in 10 mM citrate, pH 2.0, or 10 mM citrate, pH 4.0, each with or without 2 mg/mL trehalose. The solutions were dried by centrifugation under vacuum for approximately 3.5 hours at 25-30° C., or lyophilized as described above.",
  "data": [
    {"smiles": "CC[C@H](C)[C@H](NC(=O)[C@@H]1CCCN1C(=O)CNC(=O)[C@H](Cc1ccccc1)NC(=O)[C@H](CC(N)=O)NC(=O)[C@H](CC(N)=O)NC(=O)[C@H](CO)NC(=O)[C@H](CO)NC(=O)[C@H](Cc1c[nH]cn1)NC(=O)[C@@H](NC(=O)[C@H](CC(C)C)NC(=O)[C@H](Cc1ccccc1)NC(=O)[C@H](CC(N)=O)NC(=O)[C@H](C)NC(=O)[C@H](CC(C)C)NC(=O)[C@H](CCCNC(=N)N)NC(=O)[C@H](CCC(N)=O)NC(=O)[C@@H](NC(=O)[C@H](C)NC(=O)[C@@H]1CSSC[C@H](NC(=O)[C@@H](N)CCCCN)C(=O)N[C@@H](CC(N)=O)C(=O)N[C@@H]([C@@H](C)O)C(=O)N[C@@H](C)C(=O)N[C@@H]([C@@H](C)O)C(=O)N1)[C@@H](C)O)C(C)C)C(=O)N[C@@H](CC(C)C)C(=O)N1CCC[C@H]1C(=O)N1CCC[C@H]1C(=O)N[C@H](C(=O)N[C@@H](CC(N)=O)C(=O)N[C@H](C(=O)NCC(=O)N[C@@H](CO)C(=O)N[C@@H](CC(N)=O)C(=O)N[C@H](C(=O)N[C@@H](Cc1ccc(O)cc1)C(N)=O)[C@@H](C)O)C(C)C)[C@@H](C)O", "note": "[pramlintide]", "values": [
      {"measurement": "appearance of solution by visual inspection", "result": "flowable and completely clear"}
    ]}
  ]
}
